# Measured values taken from patent US12383526B2, “Optimized sigma-1 agonist method of responder selection and treatment” (ANAVEX LIFE SCIENCES CORP., priority 2018, dated 2025).
# Tested on: subjects with mild-to-moderate AD
# Assay: ADCS-ADL (Activities of Daily Living) change from baseline, 57-week Phase 2a study and 208-week extension study
# Format: in vivo, human
# Set-up: key to unadjusted change in ADCS-ADL score, Mean ± Std. Dev: change from baseline on ADCS-ADL scale 0–78, higher = greater function
# Text: The present study integrates and analyzes data and samples from two consecutive clinical trials: 57-week study and 208-week study. 57-week study was a multicenter Phase 2a clinical trial of the drug ANAVEX2-73 that recruited a sample of 32 subjects with mild-to-moderate AD. It consisted of two parts: Part A was a simple randomized, open-label, two-period, cross-over, adaptive trial lasting up to 5 weeks. Each period involved one specific administration route and two possible dose levels: in one period the oral dose (30 mg or 50 mg) was administrated and in the other period an intravenous (IV) form (3 mg or 5 mg) was administered, making a total of 8 possible dose administration schemes in Part A (details available in FIG. 2A). The two periods were separated by a wash-out period of 12 days where no dose was given.
# Part B, following immediately after Part A, was an open-label extension of the oral daily dose for an additional 52 weeks. The primary endpoint of 57-week study was to establish the safety and tolerability of the drug. Secondary endpoints aimed at establishing the relationship between dosing regimen and pharmacodynamics-exploratory efficacy outcomes of cognition and function. Cognition was assessed by the Mini Mental State Examination (MMSE), while functional abilities by the Alzheimer's Disease Co-operative Study—Activities of Daily Living Inventory (ADCS-ADL). Additional cognitive measures included the Cogstate Brief Battery (CBB), and functional measures of Electroencephalography and Event-Related Potential (EEG and ERP). Part B continued an adaptive oral administration scheme. Table 12 summarizes mean oral dose administration during the 57-week study study.
# Due to favorable safety and tolerability profile of the 57-week study (Table 2), and in response to requests from patients and caregivers, a 208-week open-label extension study (208-week study) was carried out immediately after completion of 57-week study Part B. 208-week study enrolled the 24 subjects who completed Part B and applied similarly an adaptive daily oral administration scheme. ANAVEX2-73-003 involves continuous evaluation of safety and efficacy as measured by the MMSE and ADCS-ADL. At week 148 (interim time point for analyses), data on the subjects remaining in the study (n=21) was analyzed for efficacy outcomes. This report was drafted using data available at week 148, while ANAVEX2-73-003 is still ongoing.
# Exploratory clinical efficacy in this study was defined as change from baseline of each patient's cognitive (MMSE) and functional ability (ADCS-ADL) scores. The MMSE57 is a widely used, validated instrument in clinical AD research, including as a cognitive outcome measure in drug trials. The range of the scale is from 0 to 30, with a higher score indicating higher cognitive function. The ADCS-ADL58 is undertaken in a structured caregiver interview format and assesses performance in activities of daily living of patients with AD. The scale is from 0 to 78, with a higher score indicating greater function. The ADCS-ADL has shown to have good test-retest reliability 59. The MMSE and the ADCS-ADL were assessed during pre-specified clinical site visits across 14 different time points during the 57-week study (Weeks 0 and 5 in Part A; Weeks 17, 31, 41, 53, and 57 in Part B), and 208-week study (Weeks 70, 83, 96, 109, 122, 135, and 148) studies.
# Corresponding Delta scores were calculated using the difference between values at each visit and at baseline for each individual patient, with a focus on Week 57. In addition, to lower the impact of noise in MMSE and ADCS-ADL scores, a Slope was estimated using a linear regression across all available time points for each individual patient. The derived scores describe the progression of exploratory efficacy data from baseline at several specific time points (Deltas) and over a set period of time (Slope). […]
structure (smiles),measurement,setting,value
"CN(C)CC1CCOC1(c1ccccc1)c1ccccc1.Cl (centres unmarked) [ANAVEX2-73, tetrahydro-N,N-dimethyl-2,2-diphenyl-3-furanmethanamine hydrochloride]",ADCS-ADL Mean Δ at 57 weeks,"Absence of COMT_L146fs variant & Baseline MMSE ≥20, N 11",−0.63 ± 5.33
same,ADCS-ADL Mean Δ at 57 weeks,"Absence of COMT_L146fs variant, N 16",−2.37 ± 6.96
same,ADCS-ADL Mean Δ at 57 weeks,"Absence of SIGMAR1_Q2P variant & Absence of COMT_L145fs variant & Baseline MMSE ≥20, N 10",−0.30 ± 5.50
same,ADCS-ADL Mean Δ at 57 weeks,"Absence of SIGMAR1_Q2P variant, N 16",−3.31 ± 7.64
same,ADCS-ADL Mean Δ at 57 weeks,"Absence of SIGNAR1_Q2P variant & Baseline MMSE ≥20, N 11",−1.27 ± 6.13
same,"unadjusted change in ADCS-ADL score, Mean ± Std. Dev","All Patients (N = 21), Week 0",0 ± 0
same,"unadjusted change in ADCS-ADL score, Mean ± Std. Dev","All Patients (N = 21), Week 5",−1.65 ± 6.71
same,"unadjusted change in ADCS-ADL score, Mean ± Std. Dev","All Patients (N = 21), Week 17",−1.33 ± 3.85
same,"unadjusted change in ADCS-ADL score, Mean ± Std. Dev","All Patients (N = 21), Week 31",−3.60 ± 8.09
same,"unadjusted change in ADCS-ADL score, Mean ± Std. Dev","All Patients (N = 21), Week 41",−3.95 ± 6.34
same,"unadjusted change in ADCS-ADL score, Mean ± Std. Dev","All Patients (N = 21), Week 53",−5.29 ± 7.47
same,"unadjusted change in ADCS-ADL score, Mean ± Std. Dev","All Patients (N = 21), Week 57",−5.24 ± 8.42
same,"unadjusted change in ADCS-ADL score, Mean ± Std. Dev","All Patients (N = 21), Week 70",−8.81 ± 10.90
same,"unadjusted change in ADCS-ADL score, Mean ± Std. Dev","All Patients (N = 21), Week 83",−9.38 ± 12.69
same,"unadjusted change in ADCS-ADL score, Mean ± Std. Dev","All Patients (N = 21), Week 96",−14.52 ± 15.61
same,"unadjusted change in ADCS-ADL score, Mean ± Std. Dev","All Patients (N = 21), Week 109",−14.25 ± 14.56
same,"unadjusted change in ADCS-ADL score, Mean ± Std. Dev","All Patients (N = 21), Week 122",−17.84 ± 18.89
same,"unadjusted change in ADCS-ADL score, Mean ± Std. Dev","All Patients (N = 21), Week 135",−20.29 ± 18.37
same,"unadjusted change in ADCS-ADL score, Mean ± Std. Dev","All Patients (N = 21), Week 148",−21.16 ± 17.73
same,ADCS-ADL Mean Δ at 57 weeks,"All, N 21",−5.19 ± 8.46
same,ADCS-ADL Mean Δ at 57 weeks,"Baseline MMSE ≥20, N 13",−2.00 ± 5.93
same,"unadjusted change in ADCS-ADL score, Mean ± Std. Dev","Group1 (n 2), Week 0",0.00 ± 0.00
same,"unadjusted change in ADCS-ADL score, Mean ± Std. Dev","Group1 (n 2), Week 5",6.50 ± 9.19
same,"unadjusted change in ADCS-ADL score, Mean ± Std. Dev","Group1 (n 2), Week 17",4.50 ± 0.71
same,"unadjusted change in ADCS-ADL score, Mean ± Std. Dev","Group1 (n 2), Week 31",6.50 ± 3.54
same,"unadjusted change in ADCS-ADL score, Mean ± Std. Dev","Group1 (n 2), Week 41",4.50 ± 0.71
same,"unadjusted change in ADCS-ADL score, Mean ± Std. Dev","Group1 (n 2), Week 53",5.00 ± 1.41
same,"unadjusted change in ADCS-ADL score, Mean ± Std. Dev","Group1 (n 2), Week 57",6.00 ± 2.83
same,"unadjusted change in ADCS-ADL score, Mean ± Std. Dev","Group1 (n 2), Week 70",6.00 ± 2.83
same,"unadjusted change in ADCS-ADL score, Mean ± Std. Dev","Group1 (n 2), Week 83",4.50 ± 2.12
same,"unadjusted change in ADCS-ADL score, Mean ± Std. Dev","Group1 (n 2), Week 96",5.50 ± 2.12
same,"unadjusted change in ADCS-ADL score, Mean ± Std. Dev","Group1 (n 2), Week 109",4.00 ± 0.00
same,"unadjusted change in ADCS-ADL score, Mean ± Std. Dev","Group1 (n 2), Week 122",6.00 ± 2.83
same,"unadjusted change in ADCS-ADL score, Mean ± Std. Dev","Group1 (n 2), Week 135",6.00 ± 2.83
same,"unadjusted change in ADCS-ADL score, Mean ± Std. Dev","Group1 (n 2), Week 148",7.00 ± 4.24
same,"unadjusted change in ADCS-ADL score, Mean ± Std. Dev","Group2 (n 6), Week 0",0.00 ± 0.00
same,"unadjusted change in ADCS-ADL score, Mean ± Std. Dev","Group2 (n 6), Week 5",0.83 ± 6.59
same,"unadjusted change in ADCS-ADL score, Mean ± Std. Dev","Group2 (n 6), Week 17",1.33 ± 2.80
same,"unadjusted change in ADCS-ADL score, Mean ± Std. Dev","Group2 (n 6), Week 31",0.33 ± 5.39
same,"unadjusted change in ADCS-ADL score, Mean ± Std. Dev","Group2 (n 6), Week 41",0.50 ± 4.09
same,"unadjusted change in ADCS-ADL score, Mean ± Std. Dev","Group2 (n 6), Week 53",0.50 ± 4.18
same,"unadjusted change in ADCS-ADL score, Mean ± Std. Dev","Group2 (n 6), Week 57",1.83 ± 3.66
same,"unadjusted change in ADCS-ADL score, Mean ± Std. Dev","Group2 (n 6), Week 70",0.33 ± 4.93
same,"unadjusted change in ADCS-ADL score, Mean ± Std. Dev","Group2 (n 6), Week 83",−0.67 ± 5.85
same,"unadjusted change in ADCS-ADL score, Mean ± Std. Dev","Group2 (n 6), Week 96",−2.50 ± 7.71
same,"unadjusted change in ADCS-ADL score, Mean ± Std. Dev","Group2 (n 6), Week 109",−3.83 ± 7.96
same,"unadjusted change in ADCS-ADL score, Mean ± Std. Dev","Group2 (n 6), Week 122",−3.00 ± 6.72
same,"unadjusted change in ADCS-ADL score, Mean ± Std. Dev","Group2 (n 6), Week 135",−4.17 ± 10.42
same,"unadjusted change in ADCS-ADL score, Mean ± Std. Dev","Group2 (n 6), Week 148",−8.17 ± 15.96
same,"unadjusted change in ADCS-ADL score, Mean ± Std. Dev","Group 3 (n 11), Week 0",0.00 ± 0.00
same,"unadjusted change in ADCS-ADL score, Mean ± Std. Dev","Group 3 (n 11), Week 5",−0.09 ± 6.32
same,"unadjusted change in ADCS-ADL score, Mean ± Std. Dev","Group 3 (n 11), Week 17",0.09 ± 3.45
same,"unadjusted change in ADCS-ADL score, Mean ± Std. Dev","Group 3 (n 11), Week 31",−1.82 ± 5.71
same,"unadjusted change in ADCS-ADL score, Mean ± Std. Dev","Group 3 (n 11), Week 41",−2.27 ± 6.40
same,"unadjusted change in ADCS-ADL score, Mean ± Std. Dev","Group 3 (n 11), Week 53",−1.73 ± 5.61
same,"unadjusted change in ADCS-ADL score, Mean ± Std. Dev","Group 3 (n 11), Week 57",−1.36 ± 6.09
